Results from article PMC6024615, “Effect of Biliary Drainage on the Toxicity and Toxicokinetics of Amanita exitialis in Beagles” (Toxins, 2018).

Assay: Peptide toxins in the blood / toxicokinetics in beagles with biliary drainage
Format: in vivo, beagle dogs
Parameters: Dose normalized AUC (0–∞) / Dose normalized Cmax: unit not given here
Settings: for T1/2: UPLC-ESI-MS/MS
Description: The study was approved by National Institute of Occupational Health and Poison Control review board for animal experiments. Twenty-four male beagles (age, 8–10 months; weight, 10 ± 1 kg) were obtained from Beijing Institute of Xieerxin Biology Resource (Beijing, China). They were randomly divided into four groups of six animals each: control, biliary drainage, and 20 and 60 mg/kg with biliary drainage groups. The biliary drainage operation was conducted in all groups barring the control group. The dogs were dressed in homemade underwear, coats, and Elizabeth circles for a week to ensure pre-experimental acclimatization (Figure S8a–c). After determining the baseline values for biochemical indicators, the dogs were fasted for 24 h but received water ad libitum. They were anesthetized by intravenous administration of pentobarbital sodium (3%, 1 mL/kg) during the surgery. A temperature of 38–39 °C was maintained with a warming mat. After skin preservation and sterilization, the abdominal cavity was opened through the central abdomen. The abdomen was explored and blunt dissection of the common bile duct was performed (Figure S8d). The common bile duct and its branches were ligated from the intestinal side. A 7.0-Fr drainage catheter (COOK, Bloomington, IN, USA) was percutaneously inserted into the gallbladder, and a medical drainage bag was connected to the drainage catheter coming out of the abdominal cavity. Each opened layer, including the peritoneum, abdominal wall muscle, and skin, was closed with suture. The operative incision was protected with sterile gauze and a bandage, and the dogs were dressed in homemade underwear, coats, and Elizabeth circles. The drainage bag was placed in the pocket of the coat (Figure S8e). After the anesthetic wore off, the dogs were placed in cages, and food and water were provided ad libitum. The operative incision was sterilized with iodophor twice a day until stitches were removed six days after surgery. The drainage bag was replaced every day. On the eighth day after surgery, the 20 and 60 mg/kg with biliary drainage groups were orally administered a lyophilized powder of Amanita exitialis in starch capsules. In control and bile drainage group, the beagle dogs were fed with empty capsules. Immediately after dosing, the animals were placed in their cages, and food and water were provided ad libitum. Dogs were sacrificed with an overdose of sodium pentobarbital at the end of the experiment. All procedures were performed according to the ethical standards of the National Institutes of Health Guide for Animal Welfare and approved by the Institutional Animal Care and Use Committee (EAWE-2017-005).
Peptide toxins in blood and urine samples were analyzed as described previously. Bile samples from Days 0–1, Days 1–2, Days 2–3, and Days 3–4 were collected and stored in medical drainage bags and the bile volume was recorded. Plasma and urine samples were stored at 2–8 °C until analysis for peptide toxins.
UPLC and MS/MS parameters were as described in our previous study. The limit of detection and limit of quantitation of each toxin in the bile were 0.03 mg/kg and 0.5 mg/kg, respectively.
Toxicokinetic parameters were described in our previous study. Measurement data are reported as mean ± standard deviation values and enumeration data are reported as percentage (%). […] SPSS 22.0 (IBM Corporation, Armonk, NY, USA, 2015) was used for statistical analysis. The criterion for statistical significance was p ≤ 0.05. Except for the biliary drainage operation, the animals and methods in our present study are in accordance with our previously published study. Thus, by directly comparing the data from this study with those from our published studies on Amanita exitialis-exposed beagles without biliary drainage, we can evaluate the impact of biliary drainage on the toxicity and toxicokinetics of Amanita exitialis in beagles.

[1] = 20 mg/kg Amanita exitialis oral, biliary drainage, plasma, mean ± SD
[2] = 60 mg/kg Amanita exitialis oral, biliary drainage, plasma, mean ± SD

## CC[C@H](C)[C@@H]1NC(=O)CNC(=O)[C@@H]2Cc3c([nH]c4cc(O)ccc34)[S@+]([O-])C[C@H](NC(=O)CNC1=O)C(=O)N[C@@H](CC(N)=O)C(=O)N1C[C@H](O)C[C@H]1C(=O)N[C@@H]([C@@H](C)[C@@H](O)CO)C(=O)N2 [α-amanitin]
0 h after ingestion, 60 mg/kg with biliary drainage group
  detection rate of peptide toxins in blood: 0%
[1]
  T1/2: 1.08 ± 0.76 h
  AUC (0–∞): 5.36 ± 3.17 µg·h/L
  CL/F: 14.2 ± 7.17 mL/min/kg
  Cmax: 1.73 ± 0.58 µg/L
  Dose normalized AUC (0–∞): 138.9 ± 82.1
  Dose normalized Cmax: 44 ± 15.1
  MRT (0–∞): 3.55 ± 0.8 h
  Tmax: 1.38 ± 0.48 h
  Vz/F: 1.07 ± 0.31 L/kg
[2]
  T1/2: 1.2 ± 0.58 h
  AUC (0–∞): 31.99 ± 9.65 ^a,* µg/L × h
  CL/F: 6 ± 1.83 mL/min/kg
  Cmax: 12.25 ± 3.54 ^a,* µg/L
  Dose normalized AUC (0–∞): 238.2 ± 83.9
  Dose normalized Cmax: 86.1 ± 30.8
  MRT (0–∞): 2.87 ± 0.43 h
  Tmax: 1.13 ± 0.25 h
0.25 h after ingestion, 20 mg/kg with biliary drainage group
  detection rate of peptide toxins in blood: 0%
0.25 h after ingestion, 60 mg/kg with biliary drainage group
  detection rate of peptide toxins in blood: 0%
0.5 h after ingestion, 20 mg/kg with biliary drainage group
  detection rate of peptide toxins in blood: 33%
0.5 h after ingestion, 60 mg/kg with biliary drainage group
  detection rate of peptide toxins in blood: 33%
1 h after ingestion, 20 mg/kg with biliary drainage group
  detection rate of peptide toxins in blood: 100%
1 h after ingestion, 60 mg/kg with biliary drainage group
  detection rate of peptide toxins in blood: 100%
1.5 h after ingestion, 20 mg/kg with biliary drainage group
  detection rate of peptide toxins in blood: 100%
1.5 h after ingestion, 60 mg/kg with biliary drainage group
  detection rate of peptide toxins in blood: 100%
2 h after ingestion, 20 mg/kg with biliary drainage group
  detection rate of peptide toxins in blood: 100%
2 h after ingestion, 60 mg/kg with biliary drainage group
  detection rate of peptide toxins in blood: 100%
3 h after ingestion, 20 mg/kg with biliary drainage group
  detection rate of peptide toxins in blood: 100%
3 h after ingestion, 60 mg/kg with biliary drainage group
  detection rate of peptide toxins in blood: 100%
4 h after ingestion, 20 mg/kg with biliary drainage group
  detection rate of peptide toxins in blood: 100%
4 h after ingestion, 60 mg/kg with biliary drainage group
  detection rate of peptide toxins in blood: 100%
5 h after ingestion, 20 mg/kg with biliary drainage group
  detection rate of peptide toxins in blood: 100%
5 h after ingestion, 60 mg/kg with biliary drainage group
  detection rate of peptide toxins in blood: 100%
6 h after ingestion, 20 mg/kg with biliary drainage group
  detection rate of peptide toxins in blood: 100%
6 h after ingestion, 60 mg/kg with biliary drainage group
  detection rate of peptide toxins in blood: 100%
8 h after ingestion, 20 mg/kg with biliary drainage group
  detection rate of peptide toxins in blood: 50%
8 h after ingestion, 60 mg/kg with biliary drainage group
  detection rate of peptide toxins in blood: 50%
10 h after ingestion, 20 mg/kg with biliary drainage group
  detection rate of peptide toxins in blood: 50%
10 h after ingestion, 60 mg/kg with biliary drainage group
  detection rate of peptide toxins in blood: 50%
12 h after ingestion, 20 mg/kg with biliary drainage group
  detection rate of peptide toxins in blood: 17%
12 h after ingestion, 60 mg/kg with biliary drainage group
  detection rate of peptide toxins in blood: 33%
24 h after ingestion, 20 mg/kg with biliary drainage group
  detection rate of peptide toxins in blood: 0%
24 h after ingestion, 60 mg/kg with biliary drainage group
  detection rate of peptide toxins in blood: 0%
36 h after ingestion, 20 mg/kg with biliary drainage group
  detection rate of peptide toxins in blood: 0%
36 h after ingestion, 60 mg/kg with biliary drainage group
  detection rate of peptide toxins in blood: 0%
48 h after ingestion, 20 mg/kg with biliary drainage group
  detection rate of peptide toxins in blood: 0%
48 h after ingestion, 60 mg/kg with biliary drainage group
  detection rate of peptide toxins in blood: 0%
Beagles with biliary drainage, oral Amanita exitialis
  time at which toxins were detected in plasma after ingestion: 30 min
male, beagle, dog, 60 mg/kg Amanita exitialis oral, biliary drainage, plasma, mean ± SD, read-out: Vz/F
  Vd/F: 0.68 ± 0.48 L/kg
